According to patent US12678488B2, “Batch management method for improving farrowing rate or number of piglets born alive in swine” (priority 2024, dated 2026):
“Also recorded” adds a separate entry of the source.

Experiments:
[1] = system: Landrace x Large White binary sows; assay: Number of ovulated oocytes (corpora lutea) in gilts slaughtered 16 days after mating (Example 4); format: in vivo, pigs; conditions: single low dose 12 μg/kg·BW, compared with batch farrowing with FTAI
Protocol: (§1) The breed of the gilts used in this experiment was Landrace x Large White binary sows, the gilts were randomly divided into the following 3 groups, and the treatment method for each group was as follows:
(§2) batch farrowing with FTAI: the gilts were fed with an altrenogest oral solution at 20 mg/gilt at the same time every day, for 18 days; PMSG at 1000 IU/gilt was injected intramuscularly 42 h after the last feeding with altrenogest, GnRH at 100 μg/gilt was injected intramuscularly after another 80 h, the first timed insemination was performed 24 h after the injection of GnRH, and the second timed insemination was performed after 24 h.
Treatment group 1 (batch farrowing with FTAI, with supplementing with 1-[bis(4-cyanophenyl)methyl]-1,2,4-triazole (12 μg/kg·BW, orally in a single dose): The hormone treatment and mating schemes for gilts were the same as those for gilts in the batch farrowing with FTAI. The gilts were administered orally once with 1-[bis(4-cyanophenyl)methyl]-1,2,4-triazole at 12 μg/kg·BW 8 h after the injection of PMSG.
The gilts in the batch farrowing with FTAI and the gilts in the batch farrowing with FTAI supplementing once with 1-[bis(4-cyanophenyl)methyl]-1,2,4-triazole (12 μg/kg·BW) were slaughtered. The gilts were slaughtered 16 days after mating, with 4 gilts slaughtered per group. […]

estradiol = assay: Peripheral blood estradiol level in gilts after insemination by radioimmunoassay (Example 4); format: in vivo, pigs; conditions: once low-dose 12-20 μg/kg·BW, day 2-day 16 after mating
Protocol: as §1
as §2, with “h. […]” for “h.”
Peripheral blood was collected from the gilts in the batch farrowing with FTAI and the batch farrowing with FTAI with supplementing with a single low dose of 1-[bis(4-cyanophenyl)methyl]-1,2,4-triazole at different times after mating, i.e., days 2, 4, 10 12, and 16 after mating, blood was collected from the anterior vena cava of the gilts and centrifuged, the supernatant was taken, stored at −20° C., and then detected for estradiol level by radioimmunoassay.
The detection steps were as follows: 12×75 mm disposable tubes were arranged on a tube rack, and were a total radioactivity counting (tc) tube, a non-specific binding (NSB) tube, a zero standard (0) tube, standard tubes, and sample tubes, respectively. […]

ICR female mice = assay: Mouse batch farrowing with FTAI model: embryo implantation number, embryo spacing, number born alive; format: in vivo; conditions: for embryo spacing upon embryo implantation: compared with batch farrowing model group
Protocol: 6-8-week-old ICR female mice acclimatized to the laboratory mouse house environment and in a good condition were selected and divided into a batch farrowing with FTAI model group, a batch farrowing with FTAI+low-dose model group, and a batch farrowing with FTAI+high-dose model group, and 10IU PMSG was injected at 17:00 pm. At 6-8 hours after a single injection of PMSG to the batch farrowing with FTAI+low-dose model group and the batch farrowing with FTAI+high-dose model group, respectively, the groups were supplemented with a low dose of 1-[bis(4-cyanophenyl)methyl]-1,2,4-triazole (10 μg/kg·BW) and a high dose of 1-[bis(4-cyanophenyl)methyl]-1,2,4-triazole (50 μg/kg·BW), respectively, and at 46-48 hours after the injection of PMSG, the groups were then injected with prepared 10IU GnRH and then put into a breeding male mouse cage. At 7:00-9:00 the next morning, vaginal plugs were examined, and this day was recorded as day 1 (D1) of pregnancy. In the afternoon of day 5 (D5) of pregnancy, 0.4 ml of 1% Chicago blue-normal saline solution was injected into model mice at the caudal vein, and after 3 minutes of systemic circulation, the mice were sacrificed by means of cervical dislocation, the abdominal cavity was immediately cut open, and the abdominal aorta was cut for bleeding. Then, uteri and ovaries were removed with surgical ophthalmic scissors, immersed in physiological saline for washing, and then put into a 4% paraformaldehyde fixation solution for 5 minutes of morphological fixation. Blue dots on the uterus were recorded as embryo implantation sites, the number of implantation sites was counted, and patterns of embryo spacing in different groups were drawn.
For some of the mice treated above, no intermediate test was done, and after the mice gave birth, the number born alive in each group was counted.

[2] = system: ENPP2, LPAR3 and PTGS2 mRNA (LPA signalling pathway) in the uterus; assay: Quantitative PCR of key molecules in the LPA signalling pathway in gilt uteri (Example 4); format: in vivo, pigs; conditions: gilts, 12 μg/kg·BW
Protocol: The gilts in the batch farrowing with FTAI and the gilts in the batch farrowing with FTAI supplementing once with 1-[bis(4-cyanophenyl)methyl]-1,2,4-triazole (12 μg/kg·BW) were slaughtered. The gilts were slaughtered 16 days after mating, with 4 gilts slaughtered per group. By judging the number of corpora lutea on the ovary, the number of ovulated oocytes (each corpus luteum represented an ovulation point) was confirmed.
Uteri were isolated from the gilts for RNA extraction, reverse transcription and quantitative PCR detection of several key molecules in the LPA signalling pathway, i.e., detection of ENPP2 (a gene for the expression of ATX, the key enzyme of LPA synthesis), LPAR3 (LPA receptor gene), and PTGS2 (a key gene downstream of LPAR).

[3] = low dose 10 μg/kg·BW, compared with batch farrowing with FTAI model group

## N#Cc1ccc(C(c2ccc(C#N)cc2)n2cncn2)cc1 [1-[bis(4-cyanophenyl)methyl]-1,2,4-triazole]
[1]
  number of ovulated oocytes: no significant effect
estradiol
  blood estradiol (estrogen) level after mating: no obvious change; also recorded: no significant effect
ICR female mice; high dose 50 μg/kg·BW
  embryo spacing upon embryo implantation: no effect on increasing the embryo spacing; also recorded: could not alleviate the overcrowding of embryos
ICR female mice; high dose 50 μg/kg·BW, compared with batch farrowing with FTAI model group
  number born alive: reduced number born alive; also recorded: decreased number born alive
ICR female mice; low dose 10 μg/kg·BW
  embryo spacing upon embryo implantation: increased embryo spacing; also recorded: increase the spacing between embryos
ICR female mice; [3]
  embryo implantation number: no significant effect; also recorded: no significant difference
  number born alive: significantly increase the number born alive
[2]; compared with batch farrowing with FTAI group
  Enpp2, Lpar3 and ptgs2 mRNA levels in the uteri: significantly higher
[2]; compared with natural estrus group
  Enpp2, Lpar3 and ptgs2 mRNA levels in the uteri: no significant difference
